Results on seven molecules are retold here after ChEMBL document CHEMBL1201862, “PubChem BioAssay data set” (2004).

The source made the active and inactive calls.

One test has as its target Genome polyprotein (dengue virus type 2, UniProt P29990). Briefly: Dengue-2 NS5 methyltransferase inhibitors, primary screen, biochemical, confirmation dose response (AID 588689). It counts as functional.
For the next test, the target named is Prothrombin (Homo sapiens, UniProt P00734). Briefly: Thrombin 1536 HTS Dose Response Confirmation. [Related pubchem assays: 1046 (Thrombin 1536 HTS; hits were confirmed in this assay)]. It counts as functional.
The target of test [1] is DNA damage-inducible transcript 3 protein (Mus musculus, UniProt P35639). The class given is functional, Cricetulus griseus.
Test [2] has as its target T1, Fatty acid synthase (Homo sapiens, UniProt P49327). Briefly: FAS thioesterase domain inhibitors, dose response, biochemical, kinetic fluorescence intensity (AID 624326).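 Also: rate of fluorescence rise from hydrolysis of a fluorogenic O-methyl fluorescein ester substrate.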 The class given is functional.
Another test deals with T2, Coagulation factor XII (Homo sapiens, UniProt P00748).
T2 sequence (P00748 whole entry): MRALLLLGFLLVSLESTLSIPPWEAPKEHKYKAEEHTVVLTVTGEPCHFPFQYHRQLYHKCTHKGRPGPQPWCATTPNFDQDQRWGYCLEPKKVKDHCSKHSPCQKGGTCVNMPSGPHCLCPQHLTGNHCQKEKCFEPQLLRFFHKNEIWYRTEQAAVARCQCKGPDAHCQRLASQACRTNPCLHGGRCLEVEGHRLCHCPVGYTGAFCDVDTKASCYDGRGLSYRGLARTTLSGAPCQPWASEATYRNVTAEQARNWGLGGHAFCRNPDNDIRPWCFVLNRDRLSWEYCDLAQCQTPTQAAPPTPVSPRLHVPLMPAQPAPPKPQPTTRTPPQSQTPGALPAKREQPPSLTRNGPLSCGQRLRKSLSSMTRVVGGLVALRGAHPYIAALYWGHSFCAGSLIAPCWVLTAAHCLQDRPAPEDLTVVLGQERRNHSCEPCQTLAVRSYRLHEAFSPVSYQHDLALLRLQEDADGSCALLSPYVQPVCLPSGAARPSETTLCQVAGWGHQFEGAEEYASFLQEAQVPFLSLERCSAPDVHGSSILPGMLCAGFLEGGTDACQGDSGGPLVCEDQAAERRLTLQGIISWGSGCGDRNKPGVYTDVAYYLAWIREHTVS
The class given is functional.

Another test concerns the target X-box-binding protein 1 (Homo sapiens, UniProt P17861). The class given is functional, Cricetulus griseus.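 Also: confirmatory dose-response counter-screen serving a CHOP assay.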
In test [3] the target is T1, Fatty acid synthase. Briefly: FAS thioesterase domain inhibitors, dose response, biochemical, endpoint fluorescence intensity, uHTS hits (AID 624327).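 Also: fluorescence from hydrolysis of an O-methyl fluorescein acyl ester substrate by the enzyme.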 The class given is functional.
The target in test [4] is T3, Corticotropin-releasing factor receptor 2/Corticotropin-releasing factor-binding protein (Homo sapiens, UniProt P24387+Q13324).
T3 sequence (Q13324 whole entry): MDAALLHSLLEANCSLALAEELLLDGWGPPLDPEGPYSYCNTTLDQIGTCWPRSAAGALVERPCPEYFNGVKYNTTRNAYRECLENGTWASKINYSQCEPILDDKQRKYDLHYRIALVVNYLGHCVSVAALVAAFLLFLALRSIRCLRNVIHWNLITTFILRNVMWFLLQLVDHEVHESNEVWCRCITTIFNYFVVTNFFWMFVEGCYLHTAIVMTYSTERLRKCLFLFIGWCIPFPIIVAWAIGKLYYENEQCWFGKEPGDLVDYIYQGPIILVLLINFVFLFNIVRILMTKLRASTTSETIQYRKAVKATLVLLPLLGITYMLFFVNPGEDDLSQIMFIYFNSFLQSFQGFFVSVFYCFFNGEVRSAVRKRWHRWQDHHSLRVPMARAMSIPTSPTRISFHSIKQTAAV
T3 sequence (P24387 whole entry): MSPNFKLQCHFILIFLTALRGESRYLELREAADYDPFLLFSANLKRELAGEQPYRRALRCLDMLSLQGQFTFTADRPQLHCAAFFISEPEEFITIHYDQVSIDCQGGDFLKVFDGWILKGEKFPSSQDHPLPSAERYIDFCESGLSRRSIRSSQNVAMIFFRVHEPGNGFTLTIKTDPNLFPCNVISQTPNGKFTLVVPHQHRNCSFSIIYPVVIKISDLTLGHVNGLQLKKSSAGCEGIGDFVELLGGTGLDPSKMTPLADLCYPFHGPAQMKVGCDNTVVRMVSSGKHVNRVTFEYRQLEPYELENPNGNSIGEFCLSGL
Briefly: Dose Response confirmation of uHTS hits for small molecule antagonists of the CRF-binding protein and CRF-R2 receptor complex. It counts as functional. The settings on record: read-out: IC50_Mean.

The target of test [5] is Envelope glycoprotein gp160 (Human immunodeficiency virus 1, UniProt Q6QLK5). Briefly: inhibitors of HIV fusion peptide binding, primary screen, biochemical, uHTS, fluorescence dequenching (AID 1986).
A short description of test [6]: CRF-BP/CRF-R2 complex antagonists, dose response, cell-based, uHTS hits, 384-well (AID 651639). It counts as functional, Homo sapiens. The settings on record: read-out: IC50_Mean.
The target in test [7] is T3, Corticotropin-releasing factor receptor 2/Corticotropin-releasing factor-binding protein. Briefly: activators of CRF receptor 2 with binding protein – uHTS hits, confirmation (AID 602473). It counts as functional. The conditions noted are these: read-out: EC50_Mean.
Test [8] concerns the target T4, Carboxy-terminal domain RNA polymerase II polypeptide A small phosphatase 1 (Homo sapiens, UniProt Q9GZU7).
T4 sequence (Q9GZU7 whole entry): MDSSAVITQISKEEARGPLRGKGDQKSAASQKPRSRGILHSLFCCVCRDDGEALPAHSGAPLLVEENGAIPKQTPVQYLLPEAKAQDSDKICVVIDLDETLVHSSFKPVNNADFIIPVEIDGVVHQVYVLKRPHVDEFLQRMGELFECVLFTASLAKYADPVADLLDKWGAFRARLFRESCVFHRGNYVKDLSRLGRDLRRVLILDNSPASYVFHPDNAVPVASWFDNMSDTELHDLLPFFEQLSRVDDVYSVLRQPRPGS
Briefly: inhibitors of CTDSP1, concentration-response testing, biochemical assay, absorbance-based, actives from ultra-high-throughput screening (AID 540297). It counts as functional.

For test [9], the target named is T5, Scavenger receptor class B member 1 (Mus musculus, UniProt Q61009).
T5 sequence (Q61009 whole entry): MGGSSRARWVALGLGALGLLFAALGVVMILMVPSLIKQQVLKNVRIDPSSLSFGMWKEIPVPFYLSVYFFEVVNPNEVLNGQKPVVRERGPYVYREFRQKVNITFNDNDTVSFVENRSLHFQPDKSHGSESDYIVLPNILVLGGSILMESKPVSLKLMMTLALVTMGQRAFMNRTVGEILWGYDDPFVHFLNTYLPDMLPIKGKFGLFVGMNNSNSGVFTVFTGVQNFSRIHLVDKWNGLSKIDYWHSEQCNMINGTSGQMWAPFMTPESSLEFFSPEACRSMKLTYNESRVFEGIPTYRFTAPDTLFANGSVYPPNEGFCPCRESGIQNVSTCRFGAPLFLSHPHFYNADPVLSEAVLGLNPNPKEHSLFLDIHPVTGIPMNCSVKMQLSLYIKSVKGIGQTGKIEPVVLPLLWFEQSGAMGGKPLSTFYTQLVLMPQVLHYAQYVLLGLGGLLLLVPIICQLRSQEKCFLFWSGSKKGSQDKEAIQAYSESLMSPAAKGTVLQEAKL
Briefly: inhibitors of SR-BI mediated HDL lipid uptake, dose response, ldlA[mSR-BI] cells, fluorescence, cherry pick (AID 493194).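 Also: cellular uptake of fluorescent DiI-labeled HDL measured as cell fluorescence.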 The class given is functional, cell-based.

In a further test the target is T6, Hexokinase HKDC1 (Homo sapiens, UniProt Q2TB90).
T6 sequence (Q2TB90 whole entry): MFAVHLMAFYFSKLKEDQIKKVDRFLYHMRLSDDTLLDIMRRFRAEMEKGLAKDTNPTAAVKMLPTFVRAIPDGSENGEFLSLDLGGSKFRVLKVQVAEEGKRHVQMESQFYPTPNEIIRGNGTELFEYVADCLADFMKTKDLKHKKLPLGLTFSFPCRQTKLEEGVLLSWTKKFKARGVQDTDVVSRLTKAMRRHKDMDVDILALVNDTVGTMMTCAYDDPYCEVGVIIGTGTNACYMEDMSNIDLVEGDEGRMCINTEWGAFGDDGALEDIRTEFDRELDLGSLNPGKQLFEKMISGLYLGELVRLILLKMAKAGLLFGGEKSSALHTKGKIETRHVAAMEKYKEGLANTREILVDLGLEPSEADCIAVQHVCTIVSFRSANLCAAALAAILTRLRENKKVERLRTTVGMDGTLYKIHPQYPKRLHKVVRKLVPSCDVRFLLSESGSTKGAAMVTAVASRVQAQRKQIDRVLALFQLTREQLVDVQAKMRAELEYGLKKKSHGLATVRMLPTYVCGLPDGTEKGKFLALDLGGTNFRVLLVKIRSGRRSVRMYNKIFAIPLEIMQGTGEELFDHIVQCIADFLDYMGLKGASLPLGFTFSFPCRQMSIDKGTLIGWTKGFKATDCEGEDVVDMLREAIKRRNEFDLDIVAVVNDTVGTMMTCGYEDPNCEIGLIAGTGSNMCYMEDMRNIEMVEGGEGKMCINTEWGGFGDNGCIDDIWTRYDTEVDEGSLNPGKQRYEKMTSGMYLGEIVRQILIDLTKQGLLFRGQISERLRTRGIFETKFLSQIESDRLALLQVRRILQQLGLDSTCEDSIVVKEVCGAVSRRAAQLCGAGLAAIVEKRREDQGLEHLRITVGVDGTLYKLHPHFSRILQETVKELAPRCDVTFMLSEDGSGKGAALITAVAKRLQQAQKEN
Briefly: HKDC1 hexokinase inhibitors, dose response, biochemical, W721R variant (AID 504729). The class given is functional.

The target of test [10] is C-C chemokine receptor type 6 (Homo sapiens, UniProt P51684). Briefly: CCR6 receptor antagonists, dose response, cell-based, luminescent beta-arrestin readout (AID 504728). The class given is functional.
Another test deals with HeLa. Briefly: HeLa cell cytotoxicity, dose response, cytotoxicity control, 24 h, cherry-picked samples (AID 504726).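 Also: potency for cytotoxicity as loss of luminescence signal.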 The conditions noted are these: Homo sapiens. The class given is functional, cell-based.
In another test the test system is INS1. Briefly: beta cell apoptosis inhibitors, cytokine rescue, dose response, luminescence, retest (AID 449756).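 Also: cell death triggered by IL-1 beta plus TNF-alpha plus IFN-gamma mixture; protective hits raise ATP signal compared with cytokine alone wells.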 It counts as functional, cell-based. The settings on record: Rattus norvegicus.
A further test deals with Beta-galactosidase (Escherichia coli, UniProt Q8VNN2). Briefly: beta-galactosidase enzyme inhibitors and activators, dose response, artefact control for CCR6 antagonist project, biochemical, E. coli enzyme, set 3 (AID 504712). It counts as functional.
The target in test [11] is Induced myeloid leukemia cell differentiation protein Mcl-1 (Homo sapiens, UniProt Q07820). It counts as functional.
Test [12] addresses Eukaryotic translation initiation factor 4E (Mus musculus, UniProt P63073). Briefly: eIF4E–eIF4G protein interaction inhibitors, dose response, biochemical, TR-FRET (AID 855).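 Also: potency for disrupting eIF4E binding to eIF4GI seen as loss of FRET.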 The class given is functional. A general note: TR-FRET usually uses a lanthanide donor and a delayed reading to cut background.
Test [13] concerns the target Melanin-concentrating hormone receptor 1 (Homo sapiens, UniProt Q99705). Briefly: Late-stage fluorescence-based counterscreen for antagonists of the G-protein coupled receptor 7 (GPR7): cell-based dose response assay to identify antagonists of the melanin-concentrating hormone receptor 1 (MCHR1). [Related pubchem assays (depositor defined):AID1861, AID1880, AID1952, AID2148, AID2251, AID2257, AID485339]. It counts as functional. Background: The purpose of a counterscreen is to sort out artefacts and off-target activity.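 Also: stimulated with 30 nM MCH peptide agonist.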

For test [14], the target named is Neuropeptides B/W receptor type 1 (Homo sapiens, UniProt P48145). Briefly: GPR7 antagonist potency, late-stage follow-up, cell-based, fluorescence, dose response (AID 463251). It counts as functional.
For test [15], the target named is Dual specificity protein phosphatase 3 (Homo sapiens, UniProt P51452). Briefly: VHR1 inhibitor Ki determination, SAR follow-up, biochemical, colorimetric (AID 2004).
The target of test [16] is T7, Protein phosphatase methylesterase 1 (Homo sapiens, UniProt Q9Y570). Briefly: Late stage results from the probe development effort to identify inhibitors of the protein methylesterase PME-1: Gel-based Activity-Based Protein Profiling (ABPP) IC50: Purified enzyme. The class given is functional.
Test [17] deals with T7, Protein phosphatase methylesterase 1. Briefly: PME-1 inhibitor potency by in-gel ABPP, dose response, selectivity assay for PME-1 inhibitor project, cell lysate, mouse brain cytosol, FP-rhodamine, panel member PME-1 Assay Panel member description: Inhibition of endogenously expressed PME-1 (AID 2366).

A word on the AC50: it is the concentration at which the activity in the assay is half-maximal. By Ki is commonly meant the equilibrium dissociation constant of an inhibitor or competing ligand from its target.

T7 sequence (Q9Y570 whole entry): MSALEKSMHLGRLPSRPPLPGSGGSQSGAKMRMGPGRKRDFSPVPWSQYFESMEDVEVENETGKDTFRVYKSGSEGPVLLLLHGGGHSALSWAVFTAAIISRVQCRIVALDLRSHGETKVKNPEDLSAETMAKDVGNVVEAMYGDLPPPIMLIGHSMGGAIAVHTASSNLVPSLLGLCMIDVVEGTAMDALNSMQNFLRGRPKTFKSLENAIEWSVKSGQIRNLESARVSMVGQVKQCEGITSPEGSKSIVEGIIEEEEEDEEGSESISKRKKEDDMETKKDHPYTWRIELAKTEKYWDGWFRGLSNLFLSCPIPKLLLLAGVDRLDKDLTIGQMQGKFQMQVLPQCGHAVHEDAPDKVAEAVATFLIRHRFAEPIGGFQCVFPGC
T1 sequence (P49327 whole entry, the tested form may be a part): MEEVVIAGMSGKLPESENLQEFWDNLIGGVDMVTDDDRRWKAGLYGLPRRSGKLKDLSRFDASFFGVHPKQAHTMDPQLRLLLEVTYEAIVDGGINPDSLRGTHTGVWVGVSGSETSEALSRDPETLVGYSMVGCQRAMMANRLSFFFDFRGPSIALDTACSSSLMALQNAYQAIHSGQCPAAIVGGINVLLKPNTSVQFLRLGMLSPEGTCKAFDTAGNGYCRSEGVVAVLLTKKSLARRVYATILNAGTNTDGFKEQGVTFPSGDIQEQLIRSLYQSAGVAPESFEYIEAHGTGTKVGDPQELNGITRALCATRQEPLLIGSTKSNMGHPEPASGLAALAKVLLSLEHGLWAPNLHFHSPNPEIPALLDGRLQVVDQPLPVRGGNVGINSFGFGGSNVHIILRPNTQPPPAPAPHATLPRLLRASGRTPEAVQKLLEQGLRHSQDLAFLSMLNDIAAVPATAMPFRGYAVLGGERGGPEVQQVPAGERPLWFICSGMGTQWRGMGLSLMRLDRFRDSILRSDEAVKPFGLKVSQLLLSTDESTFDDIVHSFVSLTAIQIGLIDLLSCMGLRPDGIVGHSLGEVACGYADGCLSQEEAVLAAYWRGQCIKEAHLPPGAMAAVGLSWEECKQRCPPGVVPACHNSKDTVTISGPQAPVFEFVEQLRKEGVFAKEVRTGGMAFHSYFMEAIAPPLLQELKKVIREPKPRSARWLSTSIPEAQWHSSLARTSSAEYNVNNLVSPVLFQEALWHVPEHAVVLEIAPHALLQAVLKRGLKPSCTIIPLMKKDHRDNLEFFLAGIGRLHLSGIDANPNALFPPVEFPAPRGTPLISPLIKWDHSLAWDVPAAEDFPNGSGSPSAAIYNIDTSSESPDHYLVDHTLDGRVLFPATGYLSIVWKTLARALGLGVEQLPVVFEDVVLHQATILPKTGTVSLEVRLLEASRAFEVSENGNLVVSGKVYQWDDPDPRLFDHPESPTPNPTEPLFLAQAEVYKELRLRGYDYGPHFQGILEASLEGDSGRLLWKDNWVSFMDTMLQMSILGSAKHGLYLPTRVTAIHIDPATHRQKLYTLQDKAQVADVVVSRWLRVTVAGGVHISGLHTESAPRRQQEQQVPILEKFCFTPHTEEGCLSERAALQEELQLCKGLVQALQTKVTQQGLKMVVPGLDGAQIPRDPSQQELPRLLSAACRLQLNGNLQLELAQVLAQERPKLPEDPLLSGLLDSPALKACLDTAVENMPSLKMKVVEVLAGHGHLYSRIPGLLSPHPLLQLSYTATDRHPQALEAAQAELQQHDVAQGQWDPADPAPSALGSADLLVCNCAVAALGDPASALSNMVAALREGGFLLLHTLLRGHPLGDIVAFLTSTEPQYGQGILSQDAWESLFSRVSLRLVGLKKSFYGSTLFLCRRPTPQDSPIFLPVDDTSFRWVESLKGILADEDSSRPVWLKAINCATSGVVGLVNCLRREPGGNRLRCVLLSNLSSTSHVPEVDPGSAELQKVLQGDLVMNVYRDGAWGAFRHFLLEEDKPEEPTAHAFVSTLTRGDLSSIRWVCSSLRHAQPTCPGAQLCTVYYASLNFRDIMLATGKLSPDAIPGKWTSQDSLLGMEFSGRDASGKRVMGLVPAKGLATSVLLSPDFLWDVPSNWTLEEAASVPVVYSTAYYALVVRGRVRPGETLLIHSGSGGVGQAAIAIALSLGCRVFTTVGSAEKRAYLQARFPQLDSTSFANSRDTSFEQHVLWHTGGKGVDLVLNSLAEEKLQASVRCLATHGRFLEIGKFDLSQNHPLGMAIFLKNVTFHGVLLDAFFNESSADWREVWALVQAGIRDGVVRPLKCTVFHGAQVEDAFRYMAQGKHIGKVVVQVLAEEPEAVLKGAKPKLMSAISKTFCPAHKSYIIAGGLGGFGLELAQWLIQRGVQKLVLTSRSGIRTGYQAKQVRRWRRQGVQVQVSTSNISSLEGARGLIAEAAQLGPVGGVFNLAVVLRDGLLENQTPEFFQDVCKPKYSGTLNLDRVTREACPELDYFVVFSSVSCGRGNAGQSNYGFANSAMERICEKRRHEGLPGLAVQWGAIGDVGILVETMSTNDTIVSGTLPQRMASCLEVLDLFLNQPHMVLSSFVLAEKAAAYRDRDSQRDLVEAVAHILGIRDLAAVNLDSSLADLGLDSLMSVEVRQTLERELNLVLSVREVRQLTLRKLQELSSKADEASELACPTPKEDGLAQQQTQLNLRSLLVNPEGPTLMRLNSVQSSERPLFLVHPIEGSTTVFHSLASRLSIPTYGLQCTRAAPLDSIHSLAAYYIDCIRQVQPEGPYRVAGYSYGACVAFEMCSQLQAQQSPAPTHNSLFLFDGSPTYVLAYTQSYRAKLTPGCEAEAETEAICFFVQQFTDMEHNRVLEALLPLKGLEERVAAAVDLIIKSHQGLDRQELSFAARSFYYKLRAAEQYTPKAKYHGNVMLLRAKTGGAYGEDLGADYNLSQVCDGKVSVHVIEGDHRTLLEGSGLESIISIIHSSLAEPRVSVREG
Sequence of DNA damage-inducible transcript 3 protein (P35639 whole entry, the tested form may be a part): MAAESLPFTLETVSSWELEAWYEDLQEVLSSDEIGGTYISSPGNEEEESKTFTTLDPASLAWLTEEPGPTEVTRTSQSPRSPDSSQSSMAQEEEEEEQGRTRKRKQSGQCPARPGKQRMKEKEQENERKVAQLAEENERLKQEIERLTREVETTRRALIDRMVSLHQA
Sequence of C-C chemokine receptor type 6 (P51684 whole entry): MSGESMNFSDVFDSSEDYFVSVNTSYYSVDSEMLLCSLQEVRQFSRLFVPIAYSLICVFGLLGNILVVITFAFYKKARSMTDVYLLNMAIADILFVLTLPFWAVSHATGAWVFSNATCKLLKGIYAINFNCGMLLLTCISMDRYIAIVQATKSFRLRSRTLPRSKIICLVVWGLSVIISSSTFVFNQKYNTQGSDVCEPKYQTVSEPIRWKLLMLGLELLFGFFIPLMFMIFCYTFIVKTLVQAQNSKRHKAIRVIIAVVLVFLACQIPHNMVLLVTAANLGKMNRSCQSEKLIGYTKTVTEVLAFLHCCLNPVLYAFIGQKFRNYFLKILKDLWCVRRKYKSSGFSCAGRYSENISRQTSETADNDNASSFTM
Sequence of Eukaryotic translation initiation factor 4E (P63073 whole entry): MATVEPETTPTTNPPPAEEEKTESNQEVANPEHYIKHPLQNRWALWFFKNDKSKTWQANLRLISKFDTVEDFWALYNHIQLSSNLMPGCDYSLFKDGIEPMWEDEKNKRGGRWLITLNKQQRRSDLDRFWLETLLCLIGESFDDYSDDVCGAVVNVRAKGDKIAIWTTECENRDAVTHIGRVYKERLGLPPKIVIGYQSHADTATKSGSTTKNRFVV
Sequence of Envelope glycoprotein gp160 (Q6QLK5 whole entry, the tested form may be a part): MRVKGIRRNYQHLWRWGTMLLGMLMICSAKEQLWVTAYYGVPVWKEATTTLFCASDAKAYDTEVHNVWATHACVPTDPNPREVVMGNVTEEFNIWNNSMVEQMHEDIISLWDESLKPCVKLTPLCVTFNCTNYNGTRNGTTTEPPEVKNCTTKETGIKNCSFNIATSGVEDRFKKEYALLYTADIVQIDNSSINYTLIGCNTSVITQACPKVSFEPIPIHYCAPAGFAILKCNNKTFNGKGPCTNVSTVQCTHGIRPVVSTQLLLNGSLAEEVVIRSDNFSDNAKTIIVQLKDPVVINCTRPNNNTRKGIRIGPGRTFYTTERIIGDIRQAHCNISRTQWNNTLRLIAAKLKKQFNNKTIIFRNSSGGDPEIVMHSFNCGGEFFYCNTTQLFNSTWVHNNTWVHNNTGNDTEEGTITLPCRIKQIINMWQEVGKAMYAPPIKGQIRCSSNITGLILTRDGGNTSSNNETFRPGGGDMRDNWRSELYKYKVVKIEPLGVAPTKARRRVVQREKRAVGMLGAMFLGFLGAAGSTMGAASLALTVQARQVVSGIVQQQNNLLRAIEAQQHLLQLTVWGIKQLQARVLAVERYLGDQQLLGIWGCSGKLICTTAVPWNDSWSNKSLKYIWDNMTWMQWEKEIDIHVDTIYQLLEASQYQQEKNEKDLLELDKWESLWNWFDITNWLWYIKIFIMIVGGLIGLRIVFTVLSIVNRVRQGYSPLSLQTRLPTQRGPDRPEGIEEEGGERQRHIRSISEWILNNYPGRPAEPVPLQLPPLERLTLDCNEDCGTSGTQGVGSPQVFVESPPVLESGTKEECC
Sequence of X-box-binding protein 1 (P17861 whole entry, the tested form may be a part): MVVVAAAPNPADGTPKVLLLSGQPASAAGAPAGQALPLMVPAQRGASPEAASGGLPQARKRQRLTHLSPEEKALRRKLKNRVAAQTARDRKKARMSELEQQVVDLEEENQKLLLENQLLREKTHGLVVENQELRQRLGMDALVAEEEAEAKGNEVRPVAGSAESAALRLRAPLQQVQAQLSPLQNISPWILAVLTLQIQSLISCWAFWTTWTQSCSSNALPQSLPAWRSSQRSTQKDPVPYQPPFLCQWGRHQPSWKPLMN
Sequence of Dual specificity protein phosphatase 3 (P51452 whole entry): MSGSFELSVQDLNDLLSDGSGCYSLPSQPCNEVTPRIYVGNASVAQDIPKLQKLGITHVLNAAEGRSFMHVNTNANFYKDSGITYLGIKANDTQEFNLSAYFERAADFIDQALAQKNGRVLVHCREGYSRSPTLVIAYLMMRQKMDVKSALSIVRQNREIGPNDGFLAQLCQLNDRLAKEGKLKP

`Cc1ccc(C)c(S(=O)(=O)ON2C(=O)c3ccccc3C2=O)c1`: the IC50 is > 100 µM (active) at Genome polyprotein; 1.57 µM (active) at Prothrombin; 3.7 µM (active) at Fatty acid synthase [2]; 2.59 µM (active) at Coagulation factor XII; 1.72 µM (active) at Fatty acid synthase [3]. Moreover, the “Absolute IC50 (CHOP)” value in test [1] amounted to 10 µM. In addition, the “Absolute IC50 (XBP1)” value on X-box-binding protein 1 was determined as 10 µM.
For the molecule `COc1cc(/C=C2\C(=N)N3N=C(S(C)(=O)=O)SC3=NC2=O)ccc1OCCOc1ccc(C)cc1`, the IC50 is 1.84 µM (active) in [4], > 99 µM (inactive) in test [5], 4.48 µM (active) in test [6] and 3.15 µM (active) in test [8]. Besides, the EC50 in [7] was > 53 µM (inactive).
On to `CC(OC(=O)c1cccc(NS(C)(=O)=O)c1)C(=O)Nc1ccc(N2CCOCC2)cc1` (stereo unspecified), for which the half-maximal activity concentration (AC50) in test [9] is 1.56 µM (active).
As for `Cc1ccc(S(=O)(=O)/N=C2/C=C(Sc3nc[nH]n3)C(=O)c3ccccc32)cc1`, the IC50 on Hexokinase HKDC1 is 1.8 µM (active); in test [10], 3.12 µM (active); at Beta-galactosidase, > 66.6 µM (inactive); in test [11] it was 19.7 µM (active); in test [12], > 64 µM (inactive). Also, the concentration at half-maximal activity (AC50) is 23.1 µM (active) in the test with HeLa and 6.84 µM (active) in the test with INS1. For the same molecule, the “Absolute IC50 (CHOP)” value in test [1] came to 10 µM.
As for `CCOC(=O)c1cccc(-n2ncc(Cl)c(Oc3ccc(OC)cc3)c2=O)c1`, the results for the IC50 in [13] and in test [14] were 3.7 µM (active) and 1.1 µM (active), respectively.
For the molecule `S=C(NCCN1CCOCC1)Nc1ccccc1`, the Ki in [15] was 64.3 µM (inactive).
`CS(=O)(=O)C(C#N)Cc1cccn1S(=O)(=O)c1ccccc1` (stereo unspecified): the IC50 in test [16] was > 20 µM (not active); in [17], > 20 µM (inactive).
